Paper PMC11284790, “Targeting Myeloperoxidase Ameliorates Gouty Arthritis: A Virtual Screening Success Story” (Journal of Medicinal Chemistry, 2024)
Where two headings read alike, the source gives them in different places.

Key:
[1] = Taurine chloroamine scavenger assay; conditions: 15 min at 37 °C, TMB readout
Description: Taurine chloramine was prepared by mixing hypochlorous acid (2.81 mM) with taurine (5 mM), cetyltrimethylammonium chloride (0.03%), NaCl (140 mM), and diethylenetriaminepentaacetic acid (100 μM) in phosphate buffer (20 mM, pH 7.4). The system was kept at 37 °C for 5 min for complete chloramine taurine formation. The compounds were added to this mixture and incubated for 15 min at 37 °C. Taurine chloramine was quantified by the oxidation of TMB (2 mM) catalyzed by iodide (100 μM).[33]

[2] = molecular target: Human leukocyte MPO (Homo sapiens, UniProt P05164); test: MPO peroxidatic activity assay (AmplexRed oxidation); type: biochemical; design: Human leukocyte MPO (EC 1.7.1.11) was purchased from Planta Natural Products; purchased Planta Natural Products (Vienna, Austria); host or cells: human leukocytes
Description: MPO peroxidase activity was kinetically monitored using the artificial peroxidase substrate AmplexRed, which is oxidized to resorufin and can be detected by fluorescence.[34] Reactions were carried out in phosphate buffer (50 mM, pH 7.4), MPO (100 pM), cetyltrimethylammonium chloride (0.03%), diethylenetriaminepentaacetic acid (100 μM), AmplexRed (30 μM), and compounds (20 μM in 0.3% DMSO). The reaction was started by adding 2 μM hydrogen peroxide. The reaction product was assessed by fluorescence at λex = 530 and λem = 580 nm. The initial velocity was calculated by the slope of the linear regression in the first minutes of reaction. Inhibition is represented as a percentage of the control (vehicle).

[3] = test system: human peripheral blood neutrophils; test: Cellular production of HOCl, PMA-activated peripheral blood neutrophils; type: cell-based; conditions: 20 μM compound, 100 nM PMA, 1 h
Description: Human neutrophils were obtained from healthy individuals as previously described.[24] The experiments were approved by the local ethics committee (CEPSH-ICB 1435/18).
(§1) Measurement of HOCl production by 1 × 10^6 dHL-60 or neutrophils was carried out in PBS (10 mM Na2HPO4, 2 mM KH2PO4, 0.5 mM MgCl2, 1 mM CaCl2, 140 mM NaCl, 5.5 mM dextrose, 100 μM diethylenetriaminepentaacetic acid, 5 mM taurine) in the presence of the compounds (20 μM in 0.3% DMSO) or 0.3% DMSO (control). Cells were activated with phorbol myristate acetate (100 nM) at 37 °C for 1 h. After incubation, cells were centrifuged at 1400 rpm for 10 min, and the supernatant was diluted threefold. Finally, 240 μL of this supernatant was added to 60 μL acetate buffer (400 mM, pH 5.4) containing NaI (100 μM) and TMB (2 mM in DMFO 10%). Taurine chloramine was quantified by TMB oxidation at 655 nm.[33] Inhibition of HOCl production was calculated as the percentage of the control (vehicle).

[4] = test system: dHL-60 cells; test: Cellular production of HOCl, PMA-activated dHL-60 cells; type: cell-based, human; conditions: 20 μM compound, 100 nM PMA, 1 h
Description: Human promyelocytic leukemic cells (HL-60) (BCRJ, RJ, Brazil) were cultivated in RPMI with fetal bovine serum (10%), penicillin (62 μg/mL), and streptomycin (100 μg/mL) at 37 °C in 5% CO2 atmosphere. HL-60 cells were differentiated to neutrophil-like (dHL-60) by DMSO (1.25%) during 4 days.[25]
as §1

[5] = test system: human neutrophils; test: MSU-induced NETosis assay (sytox green fluorescence microscopy); type: cell-based; conditions: 20 μM compound, MSU 250 μg/mL, 90 min
Description: NETosis assay was conducted on human neutrophils adhered to lysine-coated glass coverslips as previously reported.[80] After neutrophils’ adhesion, the compounds were diluted in RPMI medium (free of phenol red and fetal bovine serum) at a final concentration of 20 μM (0.15% DMSO) and added to the cells for 15 min at 37 °C in a 5% CO2 atmosphere. Then, MSU crystals (250 μg/mL), known to induce NETosis, were added. After 90 min incubation, the medium was carefully removed, paraformaldehyde was added (500 μL at 4%), and incubated at 4 °C overnight. In the following day, paraformaldehyde was removed, and cells were washed threefold with tris-HCl buffer (20 mM, pH 7.4) and kept into the same buffer at 4 °C. Tris-HCl buffer was carefully removed, and DNA was stained by adding 500 μL SYTOX Green (500 nM diluted in tris-HCl buffer). The system was kept for 30 min at room temperature, protected from light. After staining, the coverslips were mounted over the glass slides using ProLong Diamond Antifade Mountant fixation medium. Fluorescence images were acquired in an Axiovert 200 (Zeiss) fluorescence microscope with a 20x/0.4 objective and Zeiss Filter Set 09, λex = 450–490 nm, λem = above 515 nm. Images were taken by an Axiocam HR R3 camera device.

Human leukocyte MPO, sequence (P05164 279-745 limits assumed): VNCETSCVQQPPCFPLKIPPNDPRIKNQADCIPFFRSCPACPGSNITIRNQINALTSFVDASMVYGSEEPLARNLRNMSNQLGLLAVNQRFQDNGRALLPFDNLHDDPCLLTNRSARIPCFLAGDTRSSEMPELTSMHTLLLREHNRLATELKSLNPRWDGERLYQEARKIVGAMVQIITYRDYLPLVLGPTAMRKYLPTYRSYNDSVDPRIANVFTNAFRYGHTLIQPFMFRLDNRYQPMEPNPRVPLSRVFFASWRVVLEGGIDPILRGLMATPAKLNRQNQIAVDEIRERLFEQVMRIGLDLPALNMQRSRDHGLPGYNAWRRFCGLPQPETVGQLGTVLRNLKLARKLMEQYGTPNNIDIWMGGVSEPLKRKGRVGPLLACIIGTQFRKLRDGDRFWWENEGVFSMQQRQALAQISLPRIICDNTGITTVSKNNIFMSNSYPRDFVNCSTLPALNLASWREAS
Human leukocyte MPO, sequence (P05164 165-278 limits assumed): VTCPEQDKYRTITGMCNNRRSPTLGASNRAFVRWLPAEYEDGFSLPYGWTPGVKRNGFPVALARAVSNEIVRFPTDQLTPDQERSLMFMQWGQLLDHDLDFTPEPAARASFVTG

| Compound | scavenger activity toward taurine chloramine [1] | % Inhibition (at 20 μM) Peroxidatic ([2]; 20 μM compound, 100 pM MPO, 30 μM AmplexRed, 2 μM H2O2, pH 7.4) | % Inhibition (Peroxidatic) ([2]; supplementary csv copy of Table 1) | inhibition of HOCl production in peripheral blood neutrophils [3] | inhibition of HOCl production in dHL-60 cells [4] | inhibition of MSU-induced NETosis [5] | inhibition at 20 µM ([2]; 20 μM compound, 100 pM MPO, 30 μM AmplexRed, 2 μM H2O2, pH 7.4, read-out: % Inhibition (at 20 μM) Peroxidatic) [%] | inhibition at 20 µM ([2]; supplementary csv copy of Table 1, read-out: % Inhibition (Peroxidatic)) [%] |
| --- | --- | --- | --- | --- | --- | --- | --- | --- |
| CN1CCc2nc3sc(C(=O)Nc4cccc(C#N)c4)c(N)c3cc2C1 [RL7] | did not scavenge the milder oxidant taurine chloroamine | INACTIVE | INACTIVE | significantly inhibited | significantly inhibited | to a lesser extent | – | – |
| Nc1cc2c3c(cccc3c1)C(=O)N(N)C2=O [RL6] | did not scavenge taurine chloramine | – | – | significantly inhibited | significantly inhibited | strongly inhibited | 73 ± 13.4 | 73 ± 13.4 |
